Laboratory results published in publication PMC11813896, “Bis(7)-harmine derivatives as potential multi-target anti-Alzheimer agents” (Frontiers in Chemistry, 2025).

Columns and labels:
recombinant hMAO-A = target: T1, recombinant hMAO-A (Homo sapiens, UniProt P21397); experiment: biochemical; conditions: for inhibition at 1 µM: compound at 1 μM, read-out: inhibition of hMAO-A in primary screening; for IC50: mean ± SD, read-out: IC50 (nM) for monoamine oxidases hMAO-A
T1 construct: purchased Sigma-Aldrich
T1 sequence (P21397 1-527): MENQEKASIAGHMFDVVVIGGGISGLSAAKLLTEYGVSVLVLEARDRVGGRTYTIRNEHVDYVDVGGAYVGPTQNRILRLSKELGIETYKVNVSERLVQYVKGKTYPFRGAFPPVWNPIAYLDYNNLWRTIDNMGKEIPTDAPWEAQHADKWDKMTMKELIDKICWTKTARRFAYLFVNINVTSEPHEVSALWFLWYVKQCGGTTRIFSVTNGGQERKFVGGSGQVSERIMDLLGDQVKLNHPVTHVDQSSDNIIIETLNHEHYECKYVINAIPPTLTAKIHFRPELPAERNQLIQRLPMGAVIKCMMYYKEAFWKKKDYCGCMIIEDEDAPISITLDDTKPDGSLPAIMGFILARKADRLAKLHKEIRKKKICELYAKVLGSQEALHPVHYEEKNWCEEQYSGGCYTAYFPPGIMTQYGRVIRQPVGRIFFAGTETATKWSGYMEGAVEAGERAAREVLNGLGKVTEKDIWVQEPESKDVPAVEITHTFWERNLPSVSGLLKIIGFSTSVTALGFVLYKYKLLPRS
Procedure: (§1) Briefly, the compounds under investigation and the reference inhibitor were preincubated with kynuramine at 37°C for 10 min in 96-well microplates. […] The enzymatic reactions were terminated by adding 400 μL of 2 N NaOH and 1,000 μL of water, followed by centrifugation at 16,000 g for 10 min. Subsequently, the concentrations of MAOs that produced 4-hydroxyquinoline were determined by measuring the fluorescence of the supernatant using a Varioskan Flash Multimode Reader ([…]) with excitation and emission wavelengths set at 310 nm and 400 nm, respectively. The IC50 values were calculated from dose-response curves and expressed as the mean ± standard deviation. These values were determined based on at least three independent experiments, each performed in triplicate.

recombinant hMAO-B = target: T2, recombinant hMAO-B (Homo sapiens, UniProt P27338); experiment: biochemical; conditions: for inhibition at 1 µM: compound at 1 μM, read-out: inhibition of hMAO-B in primary screening; for IC50: mean ± SD, read-out: IC50 (nM) for monoamine oxidases hMAO-B
T2 construct: purchased Sigma-Aldrich
T2 sequence (P27338 1-520): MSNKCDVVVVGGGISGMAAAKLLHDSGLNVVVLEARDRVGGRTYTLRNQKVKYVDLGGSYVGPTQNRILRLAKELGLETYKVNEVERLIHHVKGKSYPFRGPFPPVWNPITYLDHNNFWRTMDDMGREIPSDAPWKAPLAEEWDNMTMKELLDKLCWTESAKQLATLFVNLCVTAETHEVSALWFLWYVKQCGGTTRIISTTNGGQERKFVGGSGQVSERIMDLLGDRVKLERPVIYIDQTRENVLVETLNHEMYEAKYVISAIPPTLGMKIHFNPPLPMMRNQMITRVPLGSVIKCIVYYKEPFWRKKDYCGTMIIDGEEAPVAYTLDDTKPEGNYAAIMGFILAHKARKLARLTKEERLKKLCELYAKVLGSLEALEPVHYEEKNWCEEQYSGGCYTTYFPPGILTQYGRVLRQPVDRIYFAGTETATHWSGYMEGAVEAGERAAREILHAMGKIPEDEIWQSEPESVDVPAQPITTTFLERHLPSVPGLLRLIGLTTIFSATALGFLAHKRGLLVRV
Procedure: as §1

hBuChE = hBuChE (Homo sapiens, UniProt P06276); experiment: Ellman's assay, hBuChE inhibition; type: biochemical; conditions: for inhibition at 1 µM: compound at 1 μM, read-out: inhibition of hBuChE in primary screening; for IC50: Mean ± SD from 3-5 assays, read-out: IC50 (nM) for cholinesterase hBuChE
Chain of hBuChE (P06276 29-602): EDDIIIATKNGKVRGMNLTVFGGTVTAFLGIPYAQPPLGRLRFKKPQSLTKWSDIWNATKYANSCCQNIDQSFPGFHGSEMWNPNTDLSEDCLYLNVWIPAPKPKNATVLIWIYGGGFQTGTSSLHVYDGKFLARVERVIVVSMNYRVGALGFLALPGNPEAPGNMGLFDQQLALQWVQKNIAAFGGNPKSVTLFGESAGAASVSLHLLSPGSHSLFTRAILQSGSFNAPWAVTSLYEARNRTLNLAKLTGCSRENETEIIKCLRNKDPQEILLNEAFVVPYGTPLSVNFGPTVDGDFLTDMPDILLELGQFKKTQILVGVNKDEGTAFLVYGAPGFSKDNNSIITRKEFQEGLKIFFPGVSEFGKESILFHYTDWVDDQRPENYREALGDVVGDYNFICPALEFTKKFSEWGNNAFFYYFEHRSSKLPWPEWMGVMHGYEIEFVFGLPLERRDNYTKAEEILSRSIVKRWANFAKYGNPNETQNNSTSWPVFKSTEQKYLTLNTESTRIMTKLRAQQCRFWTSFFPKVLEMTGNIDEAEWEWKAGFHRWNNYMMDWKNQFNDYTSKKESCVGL
Procedure: The Ellman’s assay was utilized to assess the inhibitory potential of novel bis(7)-harmine derivatives against hAChE and hBuChE. 50 μL of hAChE (0.02 unit/mL) or hBChE (0.02 unit/mL) were incubated with 10 μL of the compound in 96-well plates at 37°C for 6 min. Subsequently, 30 μL of a substrate solution containing acetylthiocholine iodide (ATCI) or butyrylthiocholine iodide (BTCI) at a concentration of 0.01 M was added, and the mixture was further incubated at 37°C for an additional duration of 12 min. Finally, the activity was measured by adding 150 μL of a solution containing 5,5′−dithiobis (2-nitrobenzoic acid) (DTNB) at a concentration of 0.01 M, followed by measuring absorbance at a wavelength of 415 nm using an Evolution 300 PC UV-Vis Spectrophotometer.

hAChE = hAChE (Homo sapiens, UniProt P22303); experiment: biochemical; conditions: for inhibition at 1 µM: compound at 1 μM, read-out: inhibition of hAChE in primary screening; for IC50: Mean ± SD from 3-5 assays, read-out: IC50 (nM) for cholinesterase hAChE
Chain of hAChE (P22303 32-614): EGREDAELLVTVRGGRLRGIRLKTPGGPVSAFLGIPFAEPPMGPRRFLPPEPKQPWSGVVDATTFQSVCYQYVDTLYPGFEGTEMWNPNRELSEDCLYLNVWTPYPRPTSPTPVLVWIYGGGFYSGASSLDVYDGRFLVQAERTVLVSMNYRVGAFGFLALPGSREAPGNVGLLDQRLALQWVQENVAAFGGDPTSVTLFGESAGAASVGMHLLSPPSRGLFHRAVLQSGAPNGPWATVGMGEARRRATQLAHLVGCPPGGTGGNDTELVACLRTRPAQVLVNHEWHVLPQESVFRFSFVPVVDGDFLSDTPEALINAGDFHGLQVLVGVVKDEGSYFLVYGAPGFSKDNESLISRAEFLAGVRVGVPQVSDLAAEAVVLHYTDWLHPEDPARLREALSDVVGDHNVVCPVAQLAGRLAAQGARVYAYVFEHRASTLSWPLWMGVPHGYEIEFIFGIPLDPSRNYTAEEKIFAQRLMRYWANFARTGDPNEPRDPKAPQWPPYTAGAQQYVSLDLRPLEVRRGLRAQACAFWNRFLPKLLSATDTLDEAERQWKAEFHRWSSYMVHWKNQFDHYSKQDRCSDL
Procedure: 50 μL of hAChE (0.02 unit/mL) or hBChE (0.02 unit/mL) were incubated with 10 μL of the compound in 96-well plates at 37°C for 6 min. Subsequently, 30 μL of a substrate solution containing acetylthiocholine iodide (ATCI) or butyrylthiocholine iodide (BTCI) at a concentration of 0.01 M was added, and the mixture was further incubated at 37°C for an additional duration of 12 min.

Aβ 1−42 = Aβ 1−42 (Homo sapiens, UniProt P05067); experiment: Thioflavin T fluorescence assay, Aβ 1−42 self-aggregation; type: biochemical; conditions: for inhibition percent ratio of self-induced Aβ 1-42 aggregation: compound at 20 μM; for IC50: Aβ 1-42 20 μM, 37°C, 24 h
Chain of Aβ 1−42 (P05067 672-713 limits assumed): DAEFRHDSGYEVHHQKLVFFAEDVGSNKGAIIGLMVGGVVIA
Procedure: The thioflavin T (Th-T) fluorescence assay was used to assess the inhibition of Aβ 1−42 self-aggregation. […] Subsequently, the reaction was terminated to a final volume of 200 μL using Th-T (10 μM) solution.

Structure (SMILES) | inhibition at 1 µM (recombinant hMAO-A) | inhibition at 1 µM (recombinant hMAO-B) | inhibition at 1 µM (hBuChE) | inhibition at 1 µM (hAChE) | inhibition percent ratio of self-induced Aβ 1-42 aggregation (Aβ 1−42) | S.I. Selectivity index IC50(hMAO-B)/IC50(hMAO-A) (recombinant hMAO-A) | IC50 (recombinant hMAO-A) | S.I. Selectivity index IC50(hBuChE)/IC50(hAChE) (hAChE) | IC50 (hAChE) | IC50 (hBuChE) | IC50 (recombinant hMAO-B) | IC50 (Aβ 1−42)
Cc1nccc2c3ccc(OCCCCOc4ccc5c6ccnc(C)c6n(C)c5c4)cc3n(C)c12 [Compound 4a, 1,4-bis ((1,9-dimethyl-9H-pyrido [3,4-b]indol-7-yl)oxy)butane] | 41.5% | 13.8% | 30.5% | 36.3% | 39.3% | – | – | – | – | – | – | –
CCn1c2cc(OCCCCOc3ccc4c5ccnc(C)c5n(CC)c4c3)ccc2c2ccnc(C)c21 [Compound 4b, 1,4-bis ((9-ethyl-1-methyl-9H-pyrido [3,4-b]indol-7-yl)oxy)butane] | – | 28.6% | 36.7% | – | 27.6% | >1.4 | 686 ± 43.5 nM | >9.9 | 101 ± 6.8 nM | – | – | –
CCCn1c2cc(OCCCCOc3ccc4c5ccnc(C)c5n(CCC)c4c3)ccc2c2ccnc(C)c21 [Compound 4c, 1,4-bis ((1-methyl-9-propyl-9H-pyrido [3,4-b]indol-7-yl)oxy)butane] | 48.6% | 17.8% | – | – | 33.2% | – | – | 10.2 | 68 ± 5.1 nM | 694 ± 43.2 nM | – | –
C=CCn1c2cc(OCCCCOc3ccc4c5ccnc(C)c5n(CC=C)c4c3)ccc2c2ccnc(C)c21 [Compound 4d, 1,4-bis ((9-allyl-1-methyl-9H-pyrido [3,4-b]indol-7-yl)oxy)butane] | 49.3% | 30.3% | 32.9% | 45.6% | 35.5% | – | – | – | – | – | – | –
Cc1nccc2c3ccc(OCCCCCOc4ccc5c6ccnc(C)c6n(C)c5c4)cc3n(C)c12 [Compound 5a, 1,5-bis ((1,9-dimethyl-9H-pyrido [3,4-b]indol-7-yl)oxy)pentane] | – | 25.6% | – | – | 40.6% | >4.1 | 241 ± 13.8 nM | 0.3 | 827 ± 41.5 nM | 256 ± 15.7 nM | – | –
CCn1c2cc(OCCCCCOc3ccc4c5ccnc(C)c5n(CC)c4c3)ccc2c2ccnc(C)c21 [Compound 5b, 1,5-bis ((9-ethyl-1-methyl-9H-pyrido [3,4-b]indol-7-yl)oxy)pentane] | 42.4% | 33.7% | – | – | 31.8% | – | – | 8.1 | 115 ± 7.36 nM | 928 ± 62.1 nM | – | –
CCCn1c2cc(OCCCCCOc3ccc4c5ccnc(C)c5n(CCC)c4c3)ccc2c2ccnc(C)c21 [Compound 5c, 1,5-bis ((1-methyl-9-propyl-9H-pyrido [3,4-b]indol-7-yl)oxy)pentane] | 39.5% | 27.5% | 45.6% | – | 29.4% | – | – | >13.7 | 73.8 ± 4.28 nM | – | – | –
C=CCn1c2cc(OCCCCCOc3ccc4c5ccnc(C)c5n(CC=C)c4c3)ccc2c2ccnc(C)c21 [Compound 5d, 1,5-bis ((9-allyl-1-methyl-9H-pyrido [3,4-b]indol-7-yl)oxy)pentane] | 41.1% | 29.8% | 41.2% | – | 43.6% | – | – | >3.4 | 288 ± 21.3 nM | – | – | –
Cc1nccc2c3ccc(OCCCCCCOc4ccc5c6ccnc(C)c6n(C)c5c4)cc3n(C)c12 [Compound 6a, 1,6-bis ((1,9-dimethyl-9H-pyrido [3,4-b]indol-7-yl)oxy)hexane] | – | – | – | – | – | 7.1 | 123 ± 7.2 nM | 0.7 | 493 ± 30.3 nM | 331 ± 21.5 nM | 863 ± 61.3 nM | 19.8 ± 1.1 µM
CCn1c2cc(OCCCCCCOc3ccc4c5ccnc(C)c5n(CC)c4c3)ccc2c2ccnc(C)c21 [Compound 6b, 1,6-bis ((9-ethyl-1-methyl-9H-pyrido [3,4-b]indol-7-yl)oxy)hexane] | – | 41.2% | – | – | 40.2% | >1.1 | 893 ± 59.3 nM | 0.1 | 652 ± 35.8 nM | 86.8 ± 5.3 nM | – | –
CCCn1c2cc(OCCCCCCOc3ccc4c5ccnc(C)c5n(CCC)c4c3)ccc2c2ccnc(C)c21 [Compound 6c, 1,6-bis ((1-methyl-9-propyl-9H-pyrido [3,4-b]indol-7-yl)oxy)hexane] | – | – | – | – | 35.8% | 25.2 | 21 ± 1.18 nM | 12.1 | 82.1 ± 6.9 nM | 994 ± 73.4 nM | 529 ± 38.7 nM | –
CCn1c2cc(OCCCCCCCOc3ccc4c5ccnc(C)c5n(CC)c4c3)ccc2c2ccnc(C)c21 [Compound 7b, 1,7-bis ((9-ethyl-1-methyl-9H-pyrido [3,4-b]indol-7-yl)oxy)heptane] | – | – | 36.5% | – | 29.6% | 0.5 | 150 ± 12.4 nM | >2.6 | 386 ± 26.8 nM | – | 79.8 ± 4.9 nM | –
CCCn1c2cc(OCCCCCCCOc3ccc4c5ccnc(C)c5n(CCC)c4c3)ccc2c2ccnc(C)c21 [Compound 7c, 1,7-bis ((1-methyl-9-propyl-9H-pyrido [3,4-b]indol-7-yl)oxy)heptane] | – | 34.1% | 44.8% | – | – | >111.1 | 9.1 ± 0.6 nM | >25.6 | 39.2 ± 2.9 nM | – | – | 13.3 ± 0.6 µM
C=CCn1c2cc(OCCCCCCCOc3ccc4c5ccnc(C)c5n(CC=C)c4c3)ccc2c2ccnc(C)c21 [Compound 7d, 1,7-bis ((9-allyl-1-methyl-9H-pyrido [3,4-b]indol-7-yl)oxy)heptane] | – | – | – | – | – | 0.2 | 74.6 ± 5.2 nM | – | 896 ± 65.4 nM | 23.7 ± 1.3 nM | 12.6 ± 0.76 nM | 17.1 ± 0.6 µM
Cc1nccc2c3ccc(OCCCCCCCCOc4ccc5c6ccnc(C)c6n(C)c5c4)cc3n(C)c12 [Compound 8a, 1,8-bis ((1,9-dimethyl-9H-pyrido [3,4-b]indol-7-yl)oxy)octane] | – | – | 39.1% | 42.2% | – | 10.0 | 95.2 ± 4.9 nM | – | – | – | 954 ± 49.8 nM | 16.5 ± 0.4 µM
